Where “and” joins values, the source holds several entries; their conditions need not be identical. Equal values may be shown once. Read-outs that look alike come from different tables or passages of the source.
Legend:
[1] = test system: E. coli 14182; experiment: Antibiotic MIC by microdilution with or without sub-MIC polymer; format: cell-based, Escherichia coli
[2] = test system: E. coli 14384; experiment: as above; format: cell-based, Escherichia coli; conditions: E. coli 14384; for Antibiotic MIC: no polymer (None)
Experimental: (§1) MICs were determined by microdilution susceptibility testing in 96-well plates (by Nunc) using inocula of 10^5 bacteria per ml. Cell populations were evaluated by optical density measurements at 620 nm and were calibrated against a set of standards. Hundred (100) μl of a bacterial suspension were added to 100 μl of culture medium (control) or to 100 μl of culture medium containing various polymer concentrations in 2-fold serial dilutions. Inhibition of proliferation was determined by optical density measurements at 620 nm after an incubation period of 24 hours at 37° C.
(§2) 100 μl of a bacterial suspension were added to 100 μl of culture medium (control) or to 100 μl of culture medium containing various antibiotic and C14(9-ene)KKNC12KNH2 (SEQ ID NO: 5) concentrations in 2-fold serial dilutions. Inhibition of proliferation was determined by optical density measurements at 620 nm after an incubation period of 24 hours at 37° C.

[3] = test system: S. aureus 43300; experiment: as above; format: cell-based, Staphylococcus aureus
Experimental: as §1
Table 8 below presents the MIC values of antibiotics in presence or absence of C12(5-ene)KKNC12KNH2 (SEQ ID NO: 2) at sub-MIC levels of the polymer, as measured for the S. aureus strains 43300 (ATCC), 15819 (clinical isolate), 15877 (clinical isolate) and 15852 (clinical isolate). MICs were determined by microdilution susceptibility testing in 96-well plates (Nunc) using inocula of 10^5 bacteria per ml. One hundred (100) μl of a bacterial suspension were added to 100 μl of culture medium (control) or to 100 μl of culture medium containing various antibiotic and C12(5-ene)KKNC12KNH2 (SEQ ID NO: 2) concentrations in 2-fold serial dilutions. Inhibition of proliferation was determined by optical density measurements at 620 nm after an incubation period of 24 hours at 37° C.
as §2

[4] = test system: E. coli 16329; format: cell-based, Escherichia coli
Experimental: as §1, §2

[5] = test system: S. aureus 15877; experiment: Antibiotic MIC by microdilution with or without sub-MIC polymer; format: cell-based, Staphylococcus aureus
[6] = test system: S. aureus 15819; experiment: as above; format: cell-based, Staphylococcus aureus
[7] = test system: S. aureus 43300; experiment: as above; format: cell-based, Staphylococcus aureus; remark: listed apart in the source
[8] = test system: MRSA 15903; experiment: microbe, parasite or virus in culture; format: cell-based, Staphylococcus aureus
Procedure, shortened: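 Values are FIC indexes, summing each agent's MIC in combination divided by its MIC alone, for MRSA 15903. Interpretation: <0.5 clear re-sensitization, 0.5 to 4 marginal or none, >4 antagonistic.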

[9] = test system: S. maltophila 748; experiment: Antibiotic MIC by microdilution with or without sub-MIC polymer; format: cell-based, Stenotrophomonas maltophila
[10] = +½ MIC (3.12 μM) C12(5-ene)KKNC12KNH2
[11] = +¼ MIC (1.6 μM) C12(5-ene)KKNC12KNH2
[12] = +⅓ MIC (2.1 μM) C12(5-ene)KKNC12KNH2

O=C(O)c1cn(C2CC2)c2cc(N3CCNCC3)c(F)cc2c1=O [Ciprofloxacin, ciprofloxacin]
Antibiotic MIC, None ([1]; antibiotic alone (Table 15)): <0.03 µg/mL
Antibiotic MIC ([1]; no polymer (None), Table 14): <0.03 µg/mL
Antibiotic MIC, None ([2]; antibiotic alone (Table 15)): <0.03 µg/mL
Antibiotic MIC ([2]; Table 9): <0.03 µg/mL
Antibiotic MIC ([2]; Table 14): <0.03 µg/mL
Antibiotic MIC ([3]; +¼ MIC (1.6 μM) C14(9-ene)KKNC12KNH2): 0.25 to 0.5 µg/mL
Antibiotic MIC [3, 10]: 0.03 µg/mL
Antibiotic MIC ([3]; +½ MIC (3.12 μM) C14(9-ene)KKNC12KNH2): 0.25 µg/mL
Antibiotic MIC ([3]; +⅓ MIC (2.1 μM) C14(9-ene)KKNC12KNH2): 0.25 to 0.5 µg/mL
Antibiotic MIC ([3]; no polymer (None), Table 8): 0.5 µg/mL
Antibiotic MIC ([3]; no polymer (None), Table 9): 0.5 µg/mL
Antibiotic MIC ([3]; no polymer (None), Table 10): 0.25 µg/mL
Antibiotic MIC ([3]; no polymer (None), Table 11): 0.5 µg/mL
Antibiotic MIC ([3]; no polymer (None), Table 12): 0.5 µg/mL
Antibiotic MIC ([4]; E. coli 16329, +¼ MIC (1.6 μM) C16(9-ene)KKNC12KNH2): 64 µg/mL
Antibiotic MIC ([4]; E. coli 16329, +½ MIC (3.12 μM) C16(9-ene)KKNC12KNH2): 64 µg/mL
Antibiotic MIC ([4]; E. coli 16329, +⅓ MIC (2.1 μM) C16(9-ene)KKNC12KNH2): 64 µg/mL
Antibiotic MIC ([4]; E. coli 16329, no polymer (None), Table 10): 64 µg/mL
Antibiotic MIC ([4]; E. coli U-16329, +¼ MIC C12K(NC8K)5NH2): 64 µg/mL
Antibiotic MIC ([4]; E. coli U-16329, +½ MIC C12K(NC8K)5NH2): 32 µg/mL
Antibiotic MIC ([4]; E. coli U-16329, +⅓ MIC C12K(NC8K)5NH2): 64 µg/mL
Antibiotic MIC, None ([4]; E. coli U-16329, antibiotic alone (Table 15)): 64 µg/mL
Antibiotic MIC ([4]; E. coli U-16329, no polymer (None), Table 14): 64 µg/mL
Antibiotic MIC in presence of C12K(NC8K)7NH2 (SEQ ID NO: 4), +¼ MIC ([4]; E. coli U-16329, polymer at ¼ of its MIC): 64 to 128 µg/mL
Antibiotic MIC in presence of C12K(NC8K)7NH2 (SEQ ID NO: 4), +½ MIC ([4]; E. coli U-16329, polymer at ½ of its MIC): 64 µg/mL
Antibiotic MIC in presence of C12K(NC8K)7NH2 (SEQ ID NO: 4), +⅓ MIC ([4]; E. coli U-16329, polymer at ⅓ of its MIC): 64 µg/mL
Antibiotic MIC [5, 11]: 4 µg/mL
Antibiotic MIC [5, 10]: 4 µg/mL
Antibiotic MIC [5, 12]: 4 µg/mL
Antibiotic MIC ([5]; no polymer (None), Table 8): 4 µg/mL
Antibiotic MIC [6]: 0.125 µg/mL and 0.125 to 0.25 µg/mL
Antibiotic MIC ([6]; S. aureus 15819, +¼ MIC (1.6 μM) C12K(KNC12K)3NH2): 0.125 µg/mL
Antibiotic MIC ([6]; S. aureus 15819, +½ MIC (3.12 μM) C12K(KNC12K)3NH2): 0.06 µg/mL
Antibiotic MIC ([6]; S. aureus 15819, +⅓ MIC (2.1 μM) C12K(KNC12K)3NH2): 0.125 µg/mL
Antibiotic MIC ([6]; S. aureus 15819, no polymer (None), Table 8): 0.125 to 0.25 µg/mL
Antibiotic MIC ([6]; S. aureus 15819, no polymer (None), Table 11): 0.125 to 0.25 µg/mL
Antibiotic MIC ([6]; S. aureus 15819, no polymer (None), Table 13): 0.25 µg/mL
Antibiotic MIC [7, 11]: 0.25 µg/mL
Antibiotic MIC ([7]; +¼ MIC (1.6 μM) C12KKNC12KNH2): 0.5 µg/mL
Antibiotic MIC ([7]; +¼ MIC (1.6 μM) C16(9-ene)KKNC12KNH2): 0.25 µg/mL
Antibiotic MIC ([7]; +½ MIC (3.12 μM) C12K(KNC12K)2NH2): 0.13 to 0.25 µg/mL
Antibiotic MIC ([7]; +½ MIC (3.12 μM) C12KKNC12KNH2): 0.25 µg/mL
Antibiotic MIC ([7]; +½ MIC (3.12 μM) C16(9-ene)KKNC12KNH2): 0.125 µg/mL
Antibiotic MIC [7, 12]: 0.125 µg/mL
Antibiotic MIC ([7]; +⅓ MIC (2.1 μM) C12KKNC12KNH2): 0.5 µg/mL
Antibiotic MIC ([7]; +⅓ MIC (2.1 μM) C16(9-ene)KKNC12KNH2): 0.25 µg/mL
MIC ([8]; MRSA 15903, +¼ polymer MIC (1.6 μM) NC12(KNC12K)2NH2): 32 µg/mL
MIC ([8]; MRSA 15903, +½ polymer MIC (3.1 μM) NC12(KNC12K)2NH2): 1 µg/mL
MIC ([8]; MRSA 15903, +⅓ polymer MIC (2.1 μM) NC12(KNC12K)2NH2): 16 µg/mL
MIC, ¼ + MIC OAK ([8]; MRSA 15903, with C12K(KNC10K)3NH2 (SEQ ID NO: 10) at ¼ of its MIC): 128 µg/mL
MIC, ½ + MIC OAK ([8]; MRSA 15903, with C12K(KNC10K)3NH2 (SEQ ID NO: 10) at ½ of its MIC): 64 µg/mL
MIC, ⅓ + MIC OAK ([8]; MRSA 15903, with C12K(KNC10K)3NH2 (SEQ ID NO: 10) at ⅓ of its MIC): 128 µg/mL
MIC ([8]; S. aureus CI-15903, +polymer (¼ MIC) C12(5-ene)KKNC12KNH2): 32 µg/mL
MIC ([8]; S. aureus CI-15903, +polymer (½ MIC) C12(5-ene)KKNC12KNH2): 0.25 µg/mL
MIC ([8]; S. aureus CI-15903, +polymer (⅓ MIC) C12(5-ene)KKNC12KNH2): 4 µg/mL
MIC ([8]; Staphylococcus aureus, MRSA, 24 h, MRSA 15903, antibiotic alone (Table 22), read-out: MIC, Alone): 256 µg/mL
MIC ([8]; Staphylococcus aureus, MRSA, 24 h, MRSA 15903, antibiotic alone, read-out: MIC): 64 µg/mL
MIC ([8]; Staphylococcus aureus, MRSA, 24 h, S. aureus CI-15903, alone, read-out: MIC): 64 µg/mL
Antibiotic MIC ([9]; +¼ MIC (1.6 μM) C12K(KNC12K)3NH2): 8 µg/mL
Antibiotic MIC ([9]; +½ MIC (3.12 μM) C12K(KNC12K)3NH2): 2 µg/mL
Antibiotic MIC ([9]; +⅓ MIC (2.1 μM) C12K(KNC12K)3NH2): 4 to 8 µg/mL
Antibiotic MIC ([9]; no polymer (None), Table 13): 8 µg/mL

— patent US20180153995A1, “USE OF ANTIMICROBIAL POLYMERS FOR RE-SENSITIZATION OF MICROORGANISMS UPON EMERGENCE OF RESISTANCE TO ANTI-MICROBIAL AGENTS” (Technion Research & Development Foundation Limited, priority 2008, published 2018)
